Experimental data as given in ChEMBL document CHEMBL4420075, “Seriniquinones, melanoma-specific anticancer agents” (2016).

Columns and labels:
Format in all cases: functional
NCI-H23 = assay: Growth inhibition of human NCI-H23 cells assessed as cell growth incubated for 48 hrs by sulforhodamine B assay; parameters: concentration or dose not given beside the values
HT-29 = assay: Growth inhibition of human HT-29 cells assessed as cell growth incubated for 48 hrs by sulforhodamine B assay; parameters: concentration or dose not given beside the values
OVCAR-4 = assay: Growth inhibition of human OVCAR4 cells assessed as cell growth incubated for 48 hrs by sulforhodamine B assay; parameters: concentration or dose not given beside the values
PC-3 = assay: Growth inhibition of human PC3 cells assessed as cell growth incubated for 48 hrs by sulforhodamine B assay; parameters: concentration or dose not given beside the values
MDA-MB-231 = assay: Growth inhibition of human MDA-MB-231 cells assessed as cell growth incubated for 48 hrs by sulforhodamine B assay; parameters: concentration or dose not given beside the values
A498 = assay: Growth inhibition of human A498 cells assessed as cell growth incubated for 48 hrs by sulforhodamine B assay; parameters: concentration or dose not given beside the values
UACC-62 = assay: Growth inhibition of human UACC62 cells assessed as cell growth incubated for 48 hrs by sulforhodamine B assay; parameters: concentration or dose not given beside the values
CAKI-1 = assay: Growth inhibition of human Caki1 cells assessed as cell growth incubated for 48 hrs by sulforhodamine B assay; parameters: concentration or dose not given beside the values
SF-268 = assay: Growth inhibition of human SF268 cells assessed as cell growth incubated for 48 hrs by sulforhodamine B assay; parameters: concentration or dose not given beside the values
SNB-75 = assay: Growth inhibition of human SNB75 cells assessed as cell growth incubated for 48 hrs by sulforhodamine B assay; parameters: concentration or dose not given beside the values
HOP-62 = assay: Growth inhibition of human HOP62 cells assessed as cell growth incubated for 48 hrs by sulforhodamine B assay; parameters: concentration or dose not given beside the values
OVCAR-3 = assay: Growth inhibition of human OVCAR3 cells assessed as cell growth incubated for 48 hrs by sulforhodamine B assay; parameters: concentration or dose not given beside the values
SF-295 = assay: Growth inhibition of human SF295 cells assessed as cell growth incubated for 48 hrs by sulforhodamine B assay; parameters: concentration or dose not given beside the values
Malme-3M = assay: Growth inhibition of human MALME-3M cells assessed as cell growth incubated for 48 hrs by sulforhodamine B assay; parameters: scale not given: the % may be the effect or the level left
SK-OV-3 = assay: Growth inhibition of human SKOV3 cells assessed as cell growth incubated for 48 hrs by sulforhodamine B assay; parameters: concentration or dose not given beside the values
DU-145 = assay: Growth inhibition of human DU145 cells assessed as cell growth incubated for 48 hrs by sulforhodamine B assay; parameters: concentration or dose not given beside the values
HOP-92 = assay: Growth inhibition of human HOP92 cells assessed as cell growth incubated for 48 hrs by sulforhodamine B assay; parameters: concentration or dose not given beside the values
SK-MEL-28 = assay: Growth inhibition of human SK-MEL-28 cells assessed as cell growth incubated for 48 hrs by sulforhodamine B assay; parameters: concentration or dose not given beside the values
SNB-19 = assay: Growth inhibition of human SNB19 cells assessed as cell growth incubated for 48 hrs by sulforhodamine B assay; parameters: concentration or dose not given beside the values
K562 = assay: Growth inhibition of human K562 cells assessed as cell growth incubated for 48 hrs by sulforhodamine B assay; parameters: concentration or dose not given beside the values
UO-31 = assay: Growth inhibition of human UO31 cells assessed as cell growth incubated for 48 hrs by sulforhodamine B assay; parameters: concentration or dose not given beside the values
MDA-MB-468 = assay: Growth inhibition of human MDA-MB-468 cells assessed as cell growth incubated for 48 hrs by sulforhodamine B assay; parameters: concentration or dose not given beside the values
786-0 = assay: Growth inhibition of human 786-0 cells assessed as cell growth incubated for 48 hrs by sulforhodamine B assay; parameters: concentration or dose not given beside the values
KM12 = assay: Growth inhibition of human KM12 cells assessed as cell growth incubated for 48 hrs by sulforhodamine B assay; parameters: concentration or dose not given beside the values
M14 = assay: Growth inhibition of human M14 cells assessed as cell growth incubated for 48 hrs by sulforhodamine B assay; parameters: concentration or dose not given beside the values
NCI/ADR-RES = assay: Growth inhibition of human NCI/ADR-RES cells assessed as cell growth incubated for 48 hrs by sulforhodamine B assay; parameters: concentration or dose not given beside the values
UACC-257 = assay: Growth inhibition of human UACC257 cells assessed as cell growth incubated for 48 hrs by sulforhodamine B assay; parameters: concentration or dose not given beside the values
Hs-578T = assay: Growth inhibition of human Hs 578T cells assessed as cell growth incubated for 48 hrs by sulforhodamine B assay; parameters: concentration or dose not given beside the values
IGROV-1 = assay: Growth inhibition of human IGROV1 cells assessed as cell growth incubated for 48 hrs by sulforhodamine B assay; parameters: scale not given: the % may be the effect or the level left
MCF7 = assay: Growth inhibition of human MCF7 cells assessed as cell growth incubated for 48 hrs by sulforhodamine B assay; parameters: concentration or dose not given beside the values
T47D = assay: Growth inhibition of human T47D cells assessed as cell growth incubated for 48 hrs by sulforhodamine B assay; parameters: concentration or dose not given beside the values
SW-620 = assay: Growth inhibition of human SW620 cells assessed as cell growth incubated for 48 hrs by sulforhodamine B assay; parameters: concentration or dose not given beside the values
NCI-H460 = assay: Growth inhibition of human NCI-H460 cells assessed as cell growth incubated for 48 hrs by sulforhodamine B assay; parameters: concentration or dose not given beside the values
A549 = assay: Growth inhibition of human A549/ATCC cells assessed as cell growth incubated for 48 hrs by sulforhodamine B assay; parameters: concentration or dose not given beside the values
RPMI-8226 = assay: Growth inhibition of human RPMI8226 cells assessed as cell growth incubated for 48 hrs by sulforhodamine B assay; parameters: concentration or dose not given beside the values
SN12C = assay: Growth inhibition of human SN12C cells assessed as cell growth incubated for 48 hrs by sulforhodamine B assay; parameters: concentration or dose not given beside the values
TK-10 = assay: Growth inhibition of human TK10 cells assessed as cell growth incubated for 48 hrs by sulforhodamine B assay; parameters: concentration or dose not given beside the values
SR = assay: Growth inhibition of human SR cells assessed as cell growth incubated for 48 hrs by sulforhodamine B assay; parameters: concentration or dose not given beside the values
NCI-H322M = assay: Growth inhibition of human NCI-H322M cells assessed as cell growth incubated for 48 hrs by sulforhodamine B assay; parameters: scale not given: the % may be the effect or the level left
OVCAR-8 = assay: Growth inhibition of human OVCAR8 cells assessed as cell growth incubated for 48 hrs by sulforhodamine B assay; parameters: concentration or dose not given beside the values
RXF 393 = assay: Growth inhibition of human RXF393 cells assessed as cell growth incubated for 48 hrs by sulforhodamine B assay; parameters: concentration or dose not given beside the values
MDA-MB-435 = assay: Growth inhibition of human MDA-MB-435 cells assessed as cell growth incubated for 48 hrs by sulforhodamine B assay; parameters: concentration or dose not given beside the values
U-251 = assay: Growth inhibition of human U251 cells assessed as cell growth incubated for 48 hrs by sulforhodamine B assay; parameters: concentration or dose not given beside the values
HL-60(TB) = assay: Growth inhibition of human HL-60(TB) cells assessed as cell growth incubated for 48 hrs by sulforhodamine B assay; parameters: concentration or dose not given beside the values
BT-549 = assay: Growth inhibition of human BT549 cells assessed as cell growth incubated for 48 hrs by sulforhodamine B assay; parameters: concentration or dose not given beside the values
COLO 205 = assay: Growth inhibition of human COLO205 cells assessed as cell growth incubated for 48 hrs by sulforhodamine B assay; parameters: concentration or dose not given beside the values
NCI-H522 = assay: Growth inhibition of human NCI-H522 cells assessed as cell growth incubated for 48 hrs by sulforhodamine B assay; parameters: concentration or dose not given beside the values
SK-MEL-5 = assay: Growth inhibition of human SK-MEL-5 cells assessed as cell growth incubated for 48 hrs by sulforhodamine B assay; parameters: concentration or dose not given beside the values
LOX IMVI = assay: Growth inhibition of human LOXIMVI cells assessed as cell growth incubated for 48 hrs by sulforhodamine B assay; parameters: concentration or dose not given beside the values
CCRF-CEM = assay: Growth inhibition of human CCRF-CEM cells assessed as cell growth incubated for 48 hrs by sulforhodamine B assay; parameters: concentration or dose not given beside the values
SK-MEL-2 = assay: Growth inhibition of human SK-MEL-2 cells assessed as cell growth incubated for 48 hrs by sulforhodamine B assay; parameters: concentration or dose not given beside the values
HCC 2998 = assay: Growth inhibition of human HCC2998 cells assessed as cell growth incubated for 48 hrs by sulforhodamine B assay; parameters: concentration or dose not given beside the values
HCT-116 = assay: Growth inhibition of human HCT116 cells assessed as cell growth incubated for 48 hrs by sulforhodamine B assay; parameters: concentration or dose not given beside the values
MOLT-4 = assay: Growth inhibition of human MOLT4 cells assessed as cell growth incubated for 48 hrs by sulforhodamine B assay; parameters: concentration or dose not given beside the values
NCI-H226 = assay: Growth inhibition of human NCI-H226 cells assessed as cell growth incubated for 48 hrs by sulforhodamine B assay; parameters: concentration or dose not given beside the values

Question: What does the source list for `CC(C)(C)OC(=O)NCC1CN(C(=O)CCc2ccc3c(=O)c4sc5c(=O)c6ccccc6c(=O)c5c4c(=O)c3c2)C1`?
Answer: Activity (NCI-H23): -39.91%; Activity (HT-29): -57.09%; Activity (OVCAR-4): -90.58%; Activity (PC-3): 4.68%; Activity (MDA-MB-231): -12.92%; Activity (A498): 35.61%; Activity (UACC-62): -68.32%; Activity (CAKI-1): 0.12%; Activity (SF-268): -39.06%; Activity (SNB-75): -83.64%; Activity (HOP-62): -74.88%; Activity (OVCAR-3): -33.51%; Activity (SF-295): -95.8%; Activity (Malme-3M): -88.84%; Activity (SK-OV-3): -34.85%; Activity (DU-145): -95.53%; Activity (HOP-92): -14.16%; Activity (SK-MEL-28): -21.85%; Activity (SNB-19): -4.23%; Activity (K562): -13.04%; Activity (UO-31): -81.64%; Activity (MDA-MB-468): -50.83%; Activity (786-0): -48.69%; Activity (KM12): -27.78%; Activity (M14): -97.99%; Activity (NCI/ADR-RES): -12.16%; Activity (UACC-257): -95.5%; Activity (Hs-578T): -20.36%; Activity (IGROV-1): -62.41%; Activity (MCF7): -63.33%; Activity (T47D): -33.26%; Activity (SW-620): -23.01%; Activity (NCI-H460): -45.51%; Activity (A549): -66.1%; Activity (RPMI-8226): -36.74%; Activity (SN12C): -79.71%; Activity (TK-10): -8.18%; Activity (SR): -5.83%; Activity (NCI-H322M): -94.65%; Activity (OVCAR-8): -55.88%; Activity (RXF 393): -48.97%; Activity (MDA-MB-435): -97.59%; Activity (U-251): -70.04%; Activity (HL-60(TB)): -44.47%; Activity (BT-549): -94.11%; Activity (COLO 205): -97.62%; Activity (NCI-H522): -42.91%; Activity (SK-MEL-5): -99.11%; Activity (LOX IMVI): -69.24%; Activity (CCRF-CEM): -45.34%; Activity (SK-MEL-2): -50.15%; Activity (HCC 2998): -90.99%; Activity (HCT-116): -89.29%; Activity (MOLT-4): -47.44%; Activity (NCI-H226): -51.46%
